{
  "source": "patent US7034018B2",
  "about": "“Substituted pyrrole mannich bases to combat pain and allergic reactions” (Gruenenthal GmbH, priority 1999, dated 2006)",
  "data": [
    {"biological_target": "T1, 5-HT transporter (Rattus norvegicus, UniProt P31652)", "T1 construct": "these vesicular particles were isolated from the pons and medulla oblongata region of the male rat brain; from tissue; host or cells: rat brain synaptosomes (P2 fraction) from the pons and medulla oblongata of male rats", "T1 sequence (P31652 whole entry)": "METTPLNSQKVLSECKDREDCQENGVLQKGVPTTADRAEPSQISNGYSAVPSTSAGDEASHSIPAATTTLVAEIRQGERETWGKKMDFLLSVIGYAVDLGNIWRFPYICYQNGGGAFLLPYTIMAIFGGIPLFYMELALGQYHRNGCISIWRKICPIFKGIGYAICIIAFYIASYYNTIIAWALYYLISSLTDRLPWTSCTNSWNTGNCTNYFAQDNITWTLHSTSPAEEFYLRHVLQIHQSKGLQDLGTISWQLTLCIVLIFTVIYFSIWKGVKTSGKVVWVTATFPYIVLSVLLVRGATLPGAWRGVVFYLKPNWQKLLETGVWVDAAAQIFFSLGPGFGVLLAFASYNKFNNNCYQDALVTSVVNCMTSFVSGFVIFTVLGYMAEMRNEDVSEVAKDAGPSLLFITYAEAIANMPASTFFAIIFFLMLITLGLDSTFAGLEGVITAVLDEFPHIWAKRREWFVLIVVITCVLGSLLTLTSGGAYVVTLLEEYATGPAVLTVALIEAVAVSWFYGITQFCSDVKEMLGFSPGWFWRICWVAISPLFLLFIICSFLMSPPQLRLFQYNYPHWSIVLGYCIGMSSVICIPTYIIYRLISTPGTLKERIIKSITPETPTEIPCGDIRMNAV", "assay": "Inhibition of serotonin re-uptake (5-HT uptake inhibition) in rat brain synaptosomes", "assay_type": "biochemical", "parameters": "concentration or dose not given beside the values", "conditions": "synaptosomes (P2 fraction) from pons and medulla oblongata region of male rat brain; means from 2 parallel experiments", "description": "The investigations of the inhibition of serotonin re-uptake (5-HT uptake inhibition) were carried out by the methods such as are described in M. Ch. Frink, H.-H.-Hennies, W. Englberger, M. Haurand and B. Wilffert, Arzneim.-Forsch./Drug. Res. 46 (III), 11, 1996, pages 1029-1036. They are introduced herewith as reference and thus form part of the disclosure.\nTo carry out these investigations, synaptosomes were freshly isolated from rat brain areas. In each case the so-called “P2” fraction was used, which was prepared according to the instructions in E. G. Gray and V. P. Whittaker, J. Anat. 76, pages 79-88, 1962. This literature is introduced herewith as reference and thus forms part of the disclosure. For determination of the 5-HT uptake, these vesicular particles were isolated from the pons and medulla oblongata region of the male rat brain.\nThe following characteristic data were determined for the 5-HT transporter: • 5-HT uptake: Km=0.084±0.011 μM • Vmax: 38.13±4.52 pmol/min/mg protein. The results of the investigations are in each case stated as means from 2 parallel experiments.", "units": {"Inhibition of 5HT uptake in %": "%"}, "values": [
      {"smiles": "N#CCCn1cccc1C(c1ccccc1F)N1CCCCC1", "note": "(centres unmarked) [Example 22, 3-{2-[(2-Fluoro-phenyl)-piperidin-1-yl-methyl]-pyrrol-1-yl}-propionitrile]", "Inhibition of 5HT uptake in %": 83},
      {"smiles": "Brc1ccc(C(c2cccn2-c2ccccc2)N2CCCC2)cc1", "note": "(centres unmarked) [Example 23, 2-[(4-Bromo-phenyl)-pyrrolidin-1-yl-methyl]-1-phenyl-1H-pyrrole]", "Inhibition of 5HT uptake in %": 57},
      {"smiles": "Cc1cccc(C(c2cccn2-c2ccccc2N)N2CCCCC2)c1", "note": "(centres unmarked) [Example 24, 2-[2-(Piperidin-1-yl-m-tolyl-methyl)-pyrrol-1-yl]-phenylamine]", "Inhibition of 5HT uptake in %": 59},
      {"smiles": "Fc1cc(Br)ccc1C(c1cccn1Cc1ccccn1)N1CCCC1", "note": "(centres unmarked) [Example 25, 2-{2-[(4-Bromo-2-fluoro-phenyl)-pyrrolidin-1-yl-methyl]-pyrrol-1-ylmethyl}-pyridine]", "Inhibition of 5HT uptake in %": 52},
      {"smiles": "c1ccc(Oc2cccc(C(c3cccn3Cc3ccccn3)N3CCCCC3)c2)cc1", "note": "(centres unmarked) [Example 26, 2-{2-[(3-Phenoxy-phenyl)-piperidin-1-yl-methyl]-pyrrol-1-ylmethyl}-pyridine]", "Inhibition of 5HT uptake in %": 71},
      {"smiles": "NC(=S)c1ccccc1-n1cccc1C(c1cccc(Oc2ccccc2)c1)N1CCCCC1", "note": "(centres unmarked) [Example 27, 2-{2-[(3-Phenoxy-phenyl)-piperidin-1-yl-methyl]-pyrrol-1-yl}-thiobenzamide]", "Inhibition of 5HT uptake in %": 44},
      {"smiles": "Fc1ccc(C(c2cccn2CCCl)N2CCCCC2)cc1", "note": "(centres unmarked) [Example 28, 1-[[1-(2-Chloro-ethyl)-1H-pyrrol-2-yl]-(4-fluoro-phenyl)-methyl]-piperidine]", "Inhibition of 5HT uptake in %": 40},
      {"smiles": "OCCn1cccc1C(c1cccc(Oc2ccccc2)c1)N1CCCCC1", "note": "(centres unmarked) [Example 29, 2-{2-[(3-Phenoxy-phenyl)-piperidin-1-yl-methyl]-pyrrol-1-yl}-ethanol]", "Inhibition of 5HT uptake in %": 48},
      {"smiles": "Cc1cccc(C(c2cccn2CCCO)N2CCCCC2)c1", "note": "(centres unmarked) [Example 30, 3-[2-(Piperidin-1-yl-m-tolyl-methyl)-pyrrol-1-yl]-propan-1-ol]", "Inhibition of 5HT uptake in %": 43},
      {"smiles": "OCCCn1cccc1C(c1ccc(F)cc1)N1CCCCC1", "note": "(centres unmarked) [Example 31, 3-{2-[(4-Fluoro-phenyl)-piperidin-1-yl-methyl]-pyrrol-1-yl}-propan-1-ol]", "Inhibition of 5HT uptake in %": 50},
      {"smiles": "Cn1cccc1C(c1ccc(F)cc1)N1CCCCC1", "note": "(centres unmarked) [Example 32, 1-[(4-Fluoro-phenyl)-(1-methyl-1H-pyrrol-2-yl)-methyl]-piperidine]", "Inhibition of 5HT uptake in %": 42},
      {"smiles": "Cn1cccc1C(c1ccc(C(F)(F)F)cc1)N1CCCCC1", "note": "(centres unmarked) [Example 33, 1-[(1-Methyl-1H-pyrrol-2-yl)-(4-trifluoromethyl-phenyl)-methyl]-piperidine]", "Inhibition of 5HT uptake in %": 55},
      {"smiles": "Nc1ccccc1-n1cccc1C(c1c(F)cccc1Cl)N1CCCC1", "note": "(centres unmarked) [Example 34, 2-{2-[(2-Chloro-6-fluoro-phenyl)-pyrrolidin-1-yl-methyl]-pyrrol-1-yl}-phenylamine]", "Inhibition of 5HT uptake in %": 39},
      {"smiles": "Brc1cccc(C(c2cccn2Cc2ccccn2)N2CCCC2)c1", "note": "(centres unmarked) [Example 35, 2-{2-[(3-Bromo-phenyl)-pyrrolidin-1-yl-methyl]-pyrrol-1-ylmethyl}-pyridine]", "Inhibition of 5HT uptake in %": 43},
      {"smiles": "Fc1ccc(C(c2cccn2Cc2ccccn2)N2CCCC2)cc1Br", "note": "(centres unmarked) [Example 36, 2-{2-[(3-Bromo-4-fluoro-phenyl)-pyrrolidin-1-yl-methyl]-pyrrol-1-ylmethyl}-pyridine]", "Inhibition of 5HT uptake in %": 63},
      {"smiles": "Fc1cccc(Cl)c1C(c1cccn1Cc1ccccn1)N1CCCC1", "note": "(centres unmarked) [Example 37, 2-{2-[(2-Chloro-6-fluoro-phenyl)-pyrrolidin-1-yl-methyl]-pyrrol-1-ylmethyl}-pyridine]", "Inhibition of 5HT uptake in %": 39},
      {"smiles": "N#Cc1ccc(C(c2cccn2Cc2ccccn2)N2CCCC2)cc1", "note": "(centres unmarked) [Example 38, 4-[(1-Pyridin-2-ylmethyl-1H-pyrrol-2-yl)-pyrrolidin-1-yl-methyl]-benzonitrile]", "Inhibition of 5HT uptake in %": 45},
      {"smiles": "Fc1ccc(-n2cccc2C(c2ccc(F)c(Br)c2)N2CCCC2)cc1", "note": "(centres unmarked) [Example 39, 2-[(3-Bromo-4-fluoro-phenyl)-pyrrolidin-1-yl-methyl]-1-(4-fluoro-phenyl)-1H-pyrrole]", "Inhibition of 5HT uptake in %": 37},
      {"smiles": "O=C(O)c1ccccc1-n1cccc1C(c1cc(Br)ccc1F)N1CCCC1", "note": "(centres unmarked) [Example 40, 2-{2-[(5-Bromo-2-fluoro-phenyl)-pyrrolidin-1-yl-methyl]-pyrrol-1-yl}-benzoic acid]", "Inhibition of 5HT uptake in %": 51},
      {"smiles": "NC(=S)c1ccccc1-n1cccc1C(c1cc(Br)ccc1F)N1CCCC1", "note": "(centres unmarked) [Example 41, 2-{2-[(5-Bromo-2-fluoro-phenyl)-pyrrolidin-1-yl-methyl]-pyrrol-1-yl}-thiobenzamide]", "Inhibition of 5HT uptake in %": 41},
      {"smiles": "CC(C)(C)c1ccc(C(c2cccn2C(C)(C)C)N2CCCC2)cc1", "note": "(centres unmarked) [Example 42, 1-tert-Butyl-2-[(4-tert-butyl-phenyl)-pyrrolidin-1-yl-methyl]-1H-pyrrole]", "Inhibition of 5HT uptake in %": 53}
    ]},
    {"system": "phenylquinone-induced writhing in mice", "assay": "Analgesia test in the phenylquinone-induced writhing test in mice", "assay_type": "in vivo", "conditions": "male NMRI mice; standard dose of 10 mg/kg, intravenous, 10 minutes before phenylquinone i.p.", "description": "The in-depth investigation for analgesic activity was carried out in the phenylquinone-induced writhing in mice (modified by I. C. Hendershot, J. Forsaith, J. Pharmacol. Exp. Ther. 125, 237-240 (1959)). Male NMRI mice weighing 25-30 g were used for this. Groups of 10 animals per substance dose received 0.3 ml/mouse of a 0.02% aqueous solution of phenylquinone (phenylbenzoquinone, Sigma, Deisenhofen; preparation of the solution with the addition of 5% ethanol and storage in a water bath at 45° C.) administered intraperitoneally 10 minutes after intravenous administration of the test substances. The animals were placed individually in observation cages. The number of pain-induced stretching movements (so-called writhing reactions=straightening of the body with stretching of the hind extremities) were counted by means of a push-button counter for 5-20 minutes after the administration of phenylquinone. Animals which received only physiological saline solution were also run as a control.\nThe substances were tested in the standard dose of 10 mg/kg. The inhibition of the writhing reactions by a substance was calculated according to the following equation: [formula]", "units": {"Inhibition of the Writhing reaction in %": "%"}, "values": [
      {"smiles": "Cn1cccc1C(c1ccccc1)N1CCCC1", "note": "(centres unmarked) [Example 15, 1-Methyl-2-(phenylpyrrolidin-1-yl-methyl)-1H-pyrrole]", "Inhibition of the Writhing reaction in %": 87},
      {"smiles": "CN(C)C(c1ccccc1)c1cccn1C", "note": "(centres unmarked) [Example 16, Dimethyl-[(1-methyl-1H-pyrrol-2-yl)-phenylmethyl]-amine]", "Inhibition of the Writhing reaction in %": 17}
    ]}
  ]
}
